Results as given in article PMC12481576, “Barbituric Acid Derivatives as Covalent Inhibitors of Leishmania braziliensis Dihydroorotate Dehydrogenase” (Journal of Medicinal Chemistry, 2025).
Like-named read-outs stand apart in the source and are kept apart here.

Experiments:
HsDHODH = target: T1, HsDHODH (Homo sapiens, UniProt Q02127); experiment: Selectivity assay: HsDHODH single-dose inhibition (DCIP reduction); type: biochemical
T1 construct: made in house
Method: […]. This finding highlights the potential of barbituric acid derivatives as selective inhibitors of LbDHODH.
Human DHODH expression and purification were conducted following a protocol previously established in our laboratory. The purification was carried out by affinity chromatography on a Ni-NTA Agarose column (Qiagen[…] Cat. No. 30210). […] The reaction was performed in triplicate, initiated by adding 195 μL of reaction buffer to 5 μL of HsDHODH protein solution for a final concentration of 20 nM enzyme. As a blank, 195 μL of reaction buffer was added to 5 μL of Buffer A. The reaction was monitored at 610 nm every 3 s over 60 s. As a control, 5 μL of enzyme was added to 195 μL of reaction medium without compound. Enzymatic velocity was calculated, and the percentage of relative enzymatic activity was determined relative to the control.

LbDHODH = LbDHODH (Leishmania braziliensis, UniProt E9AI53); experiment: biochemical; settings: for IC50: LbDHODH
Method: To assess the ability of compounds 2a–2i to inhibit LbDHODH via covalent bond formation with Cys^131, we initially screened them at a concentration of 100 μM under two conditions: with and without a 4-h preincubation with the enzyme.
The experiments were performed in a 96-well microplate reader (SpectraMax Plus 384, Molecular Devices, USA), containing the […] of the buffer 60 mM DCIP, 50 mM Tris pH 8.15, 150 mM KCl, 0.1% Triton X-100, 50 μM DHO and 10 μM of LbDHODH at 165 nM. The reaction was monitored every 3 s at 610 nm over a period of 60 s, in triplicate, for the control and each concentration of the inhibitor. All assays were performed without incubation (0h) and with 4-h preincubation of the inhibitor with LbDHODH, using 5% DMSO (v/v) as control. […]. […] The resulting kobs values were plotted as a function of inhibitor concentration, and the data in the initial linear region was fit to determine the slope, which is kinact/KI. All regressions were performed with GraphPad Prism 9.

[1] = Cell viability / cytotoxicity assay (PrestoBlue, 72 h); type: cell-based; settings: human
Method: THP-1 cells (American Type Cell Collection, #TIB-202) were acquired in 2019 and stored frozen in liquid nitrogen. The cells were then maintained in RPMI 1640 (Thermo Fisher Scientific, #S31800–022) at 37 °C in a 5% CO2 atmosphere and routinely tested for Mycoplasma contamination by PCR using the primers 5′-[…] and 5′-[…]. To test the toxicity of compounds, 5000 cells were added to 96-well plates with a final volume of 80 μL centrifuged at 400g for 2 min and incubated with 150 ng/mL of phorbol myristate acetate (Merck, #P8139) for 48 h. The medium was replaced, and after 24 h, the compounds were added and tested at decreasing concentrations starting from 200 μM (10 μL/well). After 72 h of incubation, 10 μL of PrestoBlue Cell Viability Reagent (Thermo Fisher Scientific, #A13262) was added per well. After adding the reagent, the cells were incubated for 2 h at 37 °C in a 5% CO2 atmosphere, and fluorescence readings were performed using the SpectraMax M3 reader (excitation at 560 nm and emission at 590 nm).

[2] = tested on: Leishmania braziliensis promastigotes; experiment: Leishmanicidal activity, promastigote growth (SYBR Green, 72 h); type: cell-based, Leishmania (V.) braziliensis (MHOM/BR/1975/M2904); settings: Leishmania braziliensis, L. braziliensis promastigotes, max 200 μM
Method: The cultures were adjusted to 4 × 10^6 parasites per mL, and 50 μL of each culture was added on a test plate with 384 wells (Corning, #CLS3658), along with the controls and compounds to be tested. Previously diluted compounds in DMSO were added to plates in decreasing concentrations, with a maximum concentration of 200 μM. Parasites were exposed to a final concentration of DMSO in various dilutes (final = 0.5%), and the culture medium was used as the control for the experiment. […] After adding the lysis buffer, the plates were incubated in the dark for 2 h with gentle shaking. The readings were done using a SpectraMax M3 reader (excitation at 485 nm and emission at 535 nm).

[3] = read-out: Single dose (0h) % activity
[4] = read-out: Single dose (4h) % activity
[5] = LbDHODH remaining activity, compound 100 μM, 4-h preincubation, read-out: single dose (4 h) % activity
[6] = LbDHODH remaining activity, compound 100 μM, without preincubation, read-out: single dose (0 h) % activity
[7] = THP-1 cell line, 72 h, max 200 μM, read-out: CC50
[8] = IC50 0 h, without preincubation

T1 sequence (Q02127 whole entry): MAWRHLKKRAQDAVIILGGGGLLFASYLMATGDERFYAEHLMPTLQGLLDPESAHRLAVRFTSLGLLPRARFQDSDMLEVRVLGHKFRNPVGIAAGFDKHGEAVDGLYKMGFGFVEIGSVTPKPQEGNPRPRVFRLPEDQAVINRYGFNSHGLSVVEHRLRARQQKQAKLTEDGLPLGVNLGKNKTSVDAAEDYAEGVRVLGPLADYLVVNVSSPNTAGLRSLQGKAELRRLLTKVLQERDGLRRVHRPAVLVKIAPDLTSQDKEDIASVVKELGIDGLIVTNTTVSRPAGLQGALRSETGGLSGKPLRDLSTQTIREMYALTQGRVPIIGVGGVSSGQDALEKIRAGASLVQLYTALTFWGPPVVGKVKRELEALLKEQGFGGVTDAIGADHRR
Sequence of LbDHODH (E9AI53 entry or part of it): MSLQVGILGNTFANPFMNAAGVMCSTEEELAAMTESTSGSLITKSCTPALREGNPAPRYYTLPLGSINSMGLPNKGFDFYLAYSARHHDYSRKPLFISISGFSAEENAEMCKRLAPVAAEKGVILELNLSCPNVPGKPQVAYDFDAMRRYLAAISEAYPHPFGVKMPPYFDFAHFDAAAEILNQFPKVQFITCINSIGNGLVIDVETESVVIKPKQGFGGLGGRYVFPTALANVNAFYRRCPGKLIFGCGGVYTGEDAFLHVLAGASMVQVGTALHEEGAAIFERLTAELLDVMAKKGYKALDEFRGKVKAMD

SMILES | activity at 100 µM (HsDHODH; [3]) [%] | activity at 100 µM (HsDHODH; [4]) [%] | activity at 100 µM (LbDHODH; [5]) [%] | activity at 100 µM (LbDHODH; [6]) [%] | CC50 at 72 h [1, 7] [µM] | EC50 [2] [µM] | IC50 (LbDHODH; [8]) [µM] | IC50 (LbDHODH; IC50 4 h, 4-h preincubation) [µM] | activity at 100 µM (LbDHODH; [3]) [%] | activity at 100 µM (LbDHODH; [4]) [%] | other results
O=C1NC(=O)C(Cc2cccc(O)c2)C(=O)N1 [3g, 5-(3-Hydroxybenzyl)pyrimidine-2,4,6(1H,3H,5H)-trione] | 87 ± 10 | 86 ± 10 | 36 ± 3 | 93 ± 5 | > 200 | > 200 | – | – | – | – | –
O=C1NC(=O)C(Cc2ccc(C(=O)O)cc2)C(=O)N1 [3b, 4-((2,4,6-Trioxohexahydropyrimidin-5-yl)methyl)benzoic Acid] | 92 ± 10 | 83 ± 8 | – | – | > 200 | > 200 | > 100 | > 100 | 109 ± 3 | 69 ± 2 | –
COc1cc(CC2C(=O)NC(=O)NC2=O)ccc1O [3c, 5-(4-Hydroxy-3-methoxybenzyl)pyrimidine-2,4,6(1H,3H,5H)-trione] | 87 ± 10 | 79 ± 8 | – | – | > 200 | > 200 | > 100 | > 100 | 98 ± 7 | 60 ± 10 | –
O=C(O)c1cc(=O)[nH]c(=O)[nH]1 [Orotate, orotate] | – | – | 27 ± 2 | 35 ± 4 | – | – | – | 27 ± 1 | – | – | IC50 (LbDHODH; without preincubation, read-out: IC50 0 h): 57 ± 2 µM
C/C(O)=C(\C#N)C(=O)Nc1ccc(C(F)(F)F)cc1 [Teriflunomide, reference compound] | – | – | – | – | – | – | – | – | – | – | activity at 100 µM (HsDHODH; HsDHODH remaining activity, 100 μM, 4-h incubation, read-out: Single dose (4h) % activity): 0.39 ± 0.04%; activity at 100 µM (HsDHODH; HsDHODH remaining activity, 100 μM, without incubation, read-out: Single dose (0h) % activity): 0.6 ± 0.1%
C[C@@H]1[C@H](O)[C@@H](C)/C=C/C=C/C=C/C=C/C=C/C=C/C=C/[C@H](O[C@@H]2O[C@H](C)[C@@H](O)[C@H](N)[C@@H]2O)C[C@@H]2O[C@](O)(C[C@@H](O)C[C@@H](O)[C@H](O)CC[C@@H](O)C[C@@H](O)CC(=O)O[C@H]1C)C[C@H](O)[C@H]2C(=O)O [Amp. B, Amphotericin B, reference compound] | – | – | – | – | – | – | – | – | – | – | CC50 at 72 h [1]: 6 ± 2 µM; EC50 ([2]; read-out: EC50): 0.4 ± 0.3 µM
